# Test results reported in patent US20200069775A1, “BRAIN OSTEOCALCIN RECEPTOR AND COGNITIVE DISORDERS” (The Trustees of Columbia University in the City of New York, priority 2017, published 2020).
# Assays:
# WT 2-month old mice = experiment: ICV delivery in WT adult mice, D/LT and EPMT; assay type: in vivo, mouse; settings: ICV 3 or 10 ng/hour, one month
# Protocol: Each mouse was allowed to explore the apparatus for 5 min. Global activity was assessed by measuring the number of entries […] (David et al, 2009, Neuron 62:479-493). Anxiety was assessed by comparing the time spent in the open arms.
# The test was performed in a quiet, darkened room. Mice were individually housed in cages containing a handful of bedding from their home cage and acclimated to the room at least 1 h before the test. Naive mice were placed individually in the testing chamber in the dark compartment. The test was 5 min in duration, and time spent and number of entries in light compartments were recorded a highly trained observer, blind to the genotype of the mice.
# To determine if osteocalcin is sufficient to improve cognitive function in adult mice, WT 2-month old mice were implanted with ICV pumps delivering vehicle (PBS), or 3, 10, or 30 ng/hr recombinant uncarboxylated full-length mouse osteocalcin for a period of one month. After one month of infusion, animals were subjected to behavioral testing.
# [1] = system: Bdnf accumulation in the hippocampus; experiment: BDNF accumulation (Western blot) in hippocampus after peripheral osteocalcin; assay type: in vivo, mouse; settings: WT mice injected peripherally, 16 hours (FIG. 13h)
# Protocol: FIG. 13. Exogenous osteocalcin improves anxiety and cognition in aged WT mice. (Panel a) EPMT performed in aged mice receiving plasma from aged, young WT, or young Ocn−/− mice, and aged WT mice receiving plasma from young Ocn−/− supplemented with 90 ng/g osteocalcin. Number of entries and time spent (s) in the open arms were scored. (Panel b) NOR performed in aged WT mice receiving plasma from WT mice either aged or young, or from young Ocn−/− mice or from young Ocn−/− supplemented with 90 ng/g osteocalcin. Preference index (time spent with novel object/total exploration time) was measured for each group. (Panel c) BDNF accumulation (representative Western blot, left) and quantification of band intensities (right) in hippocampi of aged WT mice receiving plasma from WT, either aged or young, or from young Ocn−/− mice. α-Tubulin is used as a loading control. (Panel d) DLT performed in 12 and 16 month-old WT mice treated with vehicle or osteocalcin. Number of entries in the lit compartment was measured. (Panel e) EPMT performed in 12 and 16 month-old WT mice treated with vehicle or osteocalcin. Time spent in the lit compartment and open arms was measured. (Panel f) MWMT performed over 10 days in 12 and 16 month-old WT mice treated with vehicle or osteocalcin. […] Preference index (time spent with novel object/total exploration time) was measured for each group. […]
substance,measurement,setting,value
"osteocalcin: Recombinant osteocalcin bacterially produced, cleaved from the GST subunit; completely undercarboxylated at all three sites; full-length mouse osteocalcin (YLGASVPSPDPLEPTREQCELNPACDELSDQYGLKTAYKRIYGITI)",anxiety-like behavior (D/LT and EPMT),WT 2-month old mice,decrease in anxiety-like behavior
same,"exploration of the lit compartment and open arms (D/LT, EPM)",WT 2-month old mice,increase in the exploration of the lit compartment and open arms
same,Bdnf accumulation in the hippocampi,[1],increased
